Experimental findings from patent publication US6441021B1, “Sulfonated amino acid derivatives and metalloproteinase inhibitors containing the same” (Shionogi & Co., Ltd., priority 1996, dated 2002) are described below.

Tested on in the first data set: not given
Test: not given
Conditions: not given
For `COc1ccc(C(=O)Nc2ccc(S(=O)(=O)N[C@H](Cc3c[nH]c4ccccc34)C(=O)O)cc2)cc1` (hydrate or solvate) [Example 178], the melting point fell in the range of 233 to 234 °C. In turn, `O=C(Nc1ccc(S(=O)(=O)N[C@H](Cc2c[nH]c3ccccc23)C(=O)O)cc1)c1ccc([N+](=O)[O-])cc1` (hydrate or solvate) [Example 180] displayed a melting point of 211 to 213 °C. For `CN(C)c1ccc(C(=O)Nc2ccc(S(=O)(=O)N[C@H](Cc3c[nH]c4ccccc34)C(=O)O)cc2)cc1` (hydrate or solvate) [Example 181], the melting point is 236 to 238 °C. Consider `Cc1ccc(C(=O)Nc2ccc(S(=O)(=O)N[C@H](Cc3c[nH]c4ccccc34)C(=O)O)cc2)cc1` (hydrate or solvate) [Example 182], for which the melting point is 240 to 244 °C.

In the case of `O=C(Nc1ccc(S(=O)(=O)N[C@H](Cc2c[nH]c3ccccc23)C(=O)O)cc1)c1ccc(Br)cc1` (hydrate or solvate) [Example 183], the melting point lay in the range of 215 to 218 °C. In turn, `CSc1ccc(C(=O)Nc2ccc(S(=O)(=O)N[C@H](Cc3c[nH]c4ccccc34)C(=O)O)cc2)cc1` (hydrate or solvate) [Example 184] showed a melting point of 244 to 249 °C. Same read-out and setting: as for `O=C(Nc1ccc(S(=O)(=O)N[C@H](Cc2c[nH]c3ccccc23)C(=O)O)cc1)c1ccc(F)cc1` (hydrate or solvate) [Example 185], the figure is 170 to 175 °C; as for `CC(C)[C@@H](NS(=O)(=O)c1ccc(NC(=O)c2ccc(-c3ccccc3)cc2)cc1)C(=O)O` (hydrate or solvate) [Example 195], 254 to 256 °C.

A further data set deals with T1, MMP-9 (92 kDa, gelatinase B; type IV collagenase) (Homo sapiens, UniProt P14780).
T1 construct: endogenous in cells; enzyme purified from the conditioned medium
T1 sequence (P14780 107-707 limits assumed): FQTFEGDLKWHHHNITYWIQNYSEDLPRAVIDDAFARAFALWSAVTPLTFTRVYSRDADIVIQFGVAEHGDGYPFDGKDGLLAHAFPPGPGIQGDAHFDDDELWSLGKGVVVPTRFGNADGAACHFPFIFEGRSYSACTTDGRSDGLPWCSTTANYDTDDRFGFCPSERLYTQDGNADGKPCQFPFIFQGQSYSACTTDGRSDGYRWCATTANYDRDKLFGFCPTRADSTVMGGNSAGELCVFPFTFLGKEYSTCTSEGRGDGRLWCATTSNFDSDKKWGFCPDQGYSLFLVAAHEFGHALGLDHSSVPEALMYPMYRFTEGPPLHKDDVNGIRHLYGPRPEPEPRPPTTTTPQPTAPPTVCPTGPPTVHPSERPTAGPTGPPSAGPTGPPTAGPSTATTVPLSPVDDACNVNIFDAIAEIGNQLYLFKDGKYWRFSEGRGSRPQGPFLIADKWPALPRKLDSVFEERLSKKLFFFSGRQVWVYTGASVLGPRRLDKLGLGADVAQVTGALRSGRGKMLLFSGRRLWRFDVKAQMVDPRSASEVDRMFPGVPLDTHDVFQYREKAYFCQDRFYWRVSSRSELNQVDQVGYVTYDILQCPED
The data set is described as follows: Assay of type IV collagenase inhibitors: activated MMP-9 with type IV collagenase activity kit substrate, fluorescent intensity. Type of data set: biochemical.
Conditions: not given
As to the method: (1) Isolation and Purification of MMP-9 (92 kDa, Gelatinase B)
Type IV collagenase (MMP-9) was purified according to the methods descrived in the following literature.
Subsequently, activated MMP-9 was obtained by treating the pro-MMP-9 with trypsin.
(2) Assay Methods of Type IV Collagenase Inhibitors
Collagenase assay was performed using the activated MMP-9 described above and the substrate supplied in the type IV collagenase activity kit (YAGAI, inc.), according to the manufacturer's protocol. The following 4 assays are performed per compound (inhibitor).
(A) substrate (type IV collagenase), enzyme (MMP-9), inhibitor
(B) substrate (type IV collagenase), inhibitor
(C) substrate (type IV collagenase), enzyme (MMP-9)
(D) substrate (type IV collagenase)
According to the manufacturer's protocol, fluorescent intensity was measured and percent inhibition was determined by the following equation.
Inhibition (%)={1−(A−B)/(C−D)}×100
The molecule `O=C(O)[C@@H](Cc1ccccc1)NS(=O)(=O)c1ccc(-c2nnn(-c3ccc([N+](=O)[O-])cc3)n2)cc1` [Example 230] yielded a half-maximal inhibitory concentration (IC50) of 0.281 µM. With `O=C(O)[C@@H](Cc1ccccc1)NS(=O)(=O)c1ccc(-c2nnn(-c3ccc(F)cc3)n2)cc1` [Example 231], the 50% inhibitory concentration (IC50) amounted to 0.197 µM. `O=C(O)[C@@H](Cc1ccccc1)NS(=O)(=O)c1ccc(-c2nnn(-c3ccc(Cl)cc3)n2)cc1` [Example 232]: the half-inhibitory concentration (IC50) stood at 0.144 µM. This IC50 and that of the molecule before are within 1.5-fold of each other.

`COc1ccc(-n2nnc(-c3ccc(S(=O)(=O)N[C@H](Cc4ccccc4)C(=O)O)cc3)n2)cc1` [Example 234]: it took 0.153 µM to reach half-maximal inhibition (IC50). `N#Cc1ccc(-n2nnc(-c3ccc(S(=O)(=O)N[C@H](Cc4ccccc4)C(=O)O)cc3)n2)cc1` [Example 235] registered an IC50 of 0.265 µM.

As for `Cc1ccc(-n2nnc(-c3ccc(S(=O)(=O)N[C@H](Cc4c[nH]c5ccccc45)C(=O)O)cc3)n2)cc1` [Example 241], the half-inhibitory concentration (IC50) amounted to 0.0131 µM. This IC50 is about 20-fold lower than that of the molecule before.

For `Cc1ccc(-n2nnc(-c3ccc(S(=O)(=O)N[C@@H](C(=O)O)C(C)C)cc3)n2)cc1` [Example 242], the IC50 stood at 0.0239 µM. As to `CC(C)[C@@H](NS(=O)(=O)c1ccc(-c2nnn(-c3ccc(F)cc3)n2)cc1)C(=O)O` [Example 243], it took 0.0529 µM to reach half-maximal inhibition (IC50). This IC50 is about 2.2-fold higher than that of the molecule before. Molecule `CSc1ccc(-n2nnc(-c3ccc(S(=O)(=O)N[C@H](Cc4ccccc4)C(=O)O)cc3)n2)cc1` [Example 246] registered an IC50 of 0.0108 µM. Take `CSc1ccc(-n2nnc(-c3ccc(S(=O)(=O)N[C@H](Cc4c[nH]c5ccccc45)C(=O)O)cc3)n2)cc1` [Example 247]: the half-inhibitory concentration (IC50) came out at 0.0035 µM. `CC(C)[C@H](C(=O)O)N(C)S(=O)(=O)c1ccc(Oc2ccccc2)cc1` [Example 252] displayed a concentration for half-maximal inhibition (IC50) of 0.24 µM. `CC(C)[C@H](C(=O)O)N(CCCCN)S(=O)(=O)c1ccc(Oc2ccccc2)cc1` [Example 255] had a 50% inhibitory concentration (IC50) of 0.529 µM. In the case of `O=C(O)[C@@H](Cc1ccccc1)N(Cc1ccccc1)S(=O)(=O)c1ccc(-c2nnn(-c3ccccc3)n2)cc1` [Example 258], the 50% inhibitory concentration (IC50) is 0.908 µM.

Still in this data set, the particulars now being: inhibition of type IV collagenase (MMP-9), concentration at which percent inhibition reaches 50%.
On to `Cc1ccc(-n2nnc(-c3ccc(S(=O)(=O)N[C@H](Cc4ccccc4)C(=O)O)cc3)n2)cc1` [Example 233], for which half-maximal inhibition (IC50) was put at 0.0864 µM. That is a double-digit nanomolar value. The molecule `CSc1ccc(-n2nnc(-c3ccc(S(=O)(=O)N[C@@H](C(=O)O)C(C)C)cc3)n2)cc1` [Example 245] came in with an IC50 of 0.0059 µM. Compared with the last molecule, the IC50 is about 15-fold lower.
